From the Kinase Knowledgebase extract (Sharma et al. 2016)

The compounds below were run against CDK2 (human) (UniProt P24941) (assay: Enzyme Assay).
In the case of O=c1[nH][nH]c2cc(SC3CCCC(Nc4nccnn4)C3)ccc12 (centres undefined), the Ki is reported as < 1 µM. For O=C1CCCN(c2cc(-c3cc4c(=O)[nH][nH]c4cc3Cl)nc(Nc3n[nH]c4ccc(F)cc34)n2)C1, the Ki was < 1 µM. In the case of O=c1[nH][nH]c2cc(C3(C4CCCC(Nc5ccccn5)C4)CC3)ccc12 (centres undefined), the Ki is reported as < 1 µM. CCc1c(-c2nc(Nc3cc(C)[nH]n3)c3ccccc3n2)ccc2[nH][nH]c(=O)c12 was tested, and the Ki was < 1 µM. In the case of O=c1[nH][nH]c2cc(Nc3ncc(-c4cccs4)c(Nc4cc(C5CC5)[nH]n4)n3)ccc12, the Ki is reported as < 1 µM. With CSc1nc(Nc2ccc3c(=O)[nH][nH]c3c2)cc(Nc2cc(C3CC3)[nH]n2)n1 the Ki was < 1 µM. For Cn1cnc(NC(CCCc2ccc3c(=O)[nH][nH]c3c2)c2ccccc2)c1 (centres undefined), the Ki was < 1 µM. For O=c1[nH][nH]c2cc(OCCCNc3nccnn3)ccc12, the Ki was < 1 µM. O=c1[nH][nH]c2cc(OCCONc3nccnn3)ccc12 was tested, and the Ki was < 1 µM. For O=c1[nH][nH]c2ccc(-c3nc(Nc4cc(C5CC5)[nH]n4)c4ccccc4n3)c(C(F)(F)F)c12, the Ki was < 1 µM. CC(C)c1cc(Nc2nc(Nc3ccc4c(=O)[nH][nH]c4c3)nc3ccccc23)n[nH]1 was tested, and the Ki was < 1 µM. With O=c1[nH][nH]c2ccc(-c3nc(Nc4n[nH]c5ccccc45)cc(-c4cnc[nH]4)n3)c(C(F)(F)F)c12 the Ki was < 1 µM. With O=c1[nH][nH]c2cc(OC3CCC(Nc4nccnn4)C3)ccc12 (centres undefined) the Ki was < 1 µM. Cn1cnc(NCCCCc2ccc3c(=O)[nH][nH]c3c2)c1 was tested, and the Ki was < 1 µM. Cn1cnc(NCCC(Cc2ccccc2)Cc2ccc3c(=O)[nH][nH]c3c2)c1 (centres undefined) was tested, and the Ki was < 1 µM. With Cc1cc(Nc2nc(C(C)(C)c3ccc4c(=O)[nH][nH]c4c3)nc3c2CCCCC3)n[nH]1 the Ki was < 1 µM. O=c1[nH][nH]c2cc(Nc3cccc(Nc4cc(C5CC5)[nH]n4)c3)ccc12 was tested, and the Ki was < 1 µM. In the case of O=c1[nH][nH]c2cc(C(F)(F)F)c(-c3nc(Nc4cc(C5CC5)[nH]n4)nc(-c4ccncc4)n3)cc12, the Ki is reported as < 1 µM. For O=C(CCSc1ccc2c(=O)[nH][nH]c2c1)Nc1cc(C2CC2)[nH]n1, the Ki was < 1 µM. In the case of O=c1[nH][nH]c2ccc(C3CCC(Nc4ccccn4)C3)cc12 (centres undefined), the Ki is reported as < 1 µM. For O=c1[nH][nH]c2cc(SC(CCNc3cc(C4CC4)[nH]n3)Cc3ccccc3)ccc12 (centres undefined), the Ki was < 1 µM. Cc1ccc2nc(Nc3ccc4c(=O)[nH][nH]c4c3)nc(Nc3cc(C)[nH]n3)c2n1 was tested, and the Ki was < 1 µM. With O=c1[nH][nH]c2cc(SC3CCCC(Nc4ccccn4)C3)ccc12 (centres undefined) the Ki was < 1 µM. In the case of Cc1ccc2nc(Nc3ccc4c(=O)[nH][nH]c4c3)nc(Nc3cc(C4CC4)[nH]n3)c2n1, the Ki is reported as < 1 µM. With Cc1cc(Nc2cccc(NCc3ccc4c(=O)[nH][nH]c4c3)n2)n[nH]1 the Ki was < 1 µM. O=c1[nH][nH]c2cc(NCCC(Nc3cc(C4CC4)[nH]n3)c3ccccc3)ccc12 (centres undefined) was tested, and the Ki was < 1 µM. With CN(C)CCNC(=O)c1cc(Nc2cc(C3CC3)[nH]n2)nc(Sc2ccc3c(=O)[nH][nH]c3c2)n1 the Ki was < 1 µM. In the case of O=c1[nH][nH]c2cc(Nc3nc(Nc4cc(C5CCCC5)[nH]n4)c4ccccc4n3)ccc12, the Ki is reported as < 1 µM. In the case of Cc1cnc(NC2CCCC2COc2ccc3c(=O)[nH][nH]c3c2)s1 (centres undefined), the Ki is reported as < 1 µM. In the case of O=c1[nH][nH]c2ccc(-c3nc(Nc4cc(C5CCCC5)[nH]n4)c4ccccc4n3)cc12, the Ki is reported as < 1 µM. With Cc1cnc(NCCC(Cc2ccccc2)Cc2ccc3c(=O)[nH][nH]c3c2)s1 (centres undefined) the Ki was < 1 µM. O=C(CCNc1ccc2c(=O)[nH][nH]c2c1)Nc1ccccn1 was tested, and the Ki was < 1 µM. In the case of O=C(CCNc1nccnn1)Oc1ccc2c(=O)[nH][nH]c2c1, the Ki is reported as < 1 µM. With O=c1[nH][nH]c2cc(NC3CCCC(Nc4cc(C5CC5)[nH]n4)C3)ccc12 (centres undefined) the Ki was < 1 µM. With O=c1[nH][nH]c2cc(CCCC(Nc3nccnn3)c3ccccc3)ccc12 (centres undefined) the Ki was < 1 µM. For Cc1cc(Nc2cc(N3CCN(C)CC3)nc(Sc3ccc4c(=O)[nH][nH]c4c3)n2)n[nH]1, the Ki was < 1 µM. With Cc1cnc(NC2CCC(Oc3ccc4c(=O)[nH][nH]c4c3)C2)s1 (centres undefined) the Ki was < 1 µM. With CN(C)CCNc1nnc(Nc2n[nH]c3ccccc23)cc1-c1ccc2[nH][nH]c(=O)c2c1Cl the Ki was < 1 µM. In the case of Nc1ccc(Nc2ccc3c(=O)[nH][nH]c3c2)nc1Nc1cc(C2CC2)[nH]n1, the Ki is reported as < 1 µM. For Cc1cc(Nc2nc(Sc3ccc4c(=O)[nH][nH]c4c3)nc3cc([N+](=O)[O-])ccc23)n[nH]1, the Ki was < 1 µM. For Cc1cnc(NOCCSc2ccc3c(=O)[nH][nH]c3c2)s1, the Ki was < 1 µM. For O=c1[nH][nH]c2cc(OCCONc3ccccn3)ccc12, the Ki was < 1 µM. In the case of O=C(CCCc1ccc2c(=O)[nH][nH]c2c1)Nc1cc(C2CC2)[nH]n1, the Ki is reported as < 1 µM. For O=c1[nH][nH]c2ccc(-c3nc(Nc4n[nH]cc4-c4ccccc4)c4ccccc4n3)c(C(F)(F)F)c12, the Ki was < 1 µM. In the case of Cc1nc(-c2ccc3[nH][nH]c(=O)c3c2Cl)nc(Nc2n[nH]c(C3CCCC3)n2)c1C, the Ki is reported as < 1 µM. With Cc1cc(Nc2cc(Sc3ccc4c(=O)[nH][nH]c4c3)nc3ccccc23)n[nH]1 the Ki was < 1 µM. In the case of O=C(CC(=O)Oc1ccc2c(=O)[nH][nH]c2c1)Nc1nccnn1, the Ki is reported as < 1 µM. With Cc1cc(Nc2cc(C3CC3)[nH]n2)nc(Sc2ccc3c(=O)[nH][nH]c3c2)n1 the Ki was < 1 µM. In the case of O=c1[nH][nH]c2cc(OCCCNc3ccccn3)ccc12, the Ki is reported as < 1 µM.
